Patent publication US8748458B2, “Scriptaid isosteres and their use in therapy” (Karus Therapeutics Limited, priority 2009, dated 2014)

How the values were obtained:
HDAC1 = HDAC1 (Homo sapiens (Human), UniProt Q13547); experiment: HDAC1 inhibition; assay type: biochemical
MCF7 Breast Tumour Cell = MCF7 Breast Tumour Cell Proliferation Inhibition; assay type: cell-based; conditions: Homo sapiens; MCF7 cells
HDAC6 = HDAC6 (Homo sapiens (Human), UniProt Q9UBN7); experiment: HDAC6 inhibition; assay type: biochemical
Chain of HDAC6 (Q9UBN7 whole entry, species assumed): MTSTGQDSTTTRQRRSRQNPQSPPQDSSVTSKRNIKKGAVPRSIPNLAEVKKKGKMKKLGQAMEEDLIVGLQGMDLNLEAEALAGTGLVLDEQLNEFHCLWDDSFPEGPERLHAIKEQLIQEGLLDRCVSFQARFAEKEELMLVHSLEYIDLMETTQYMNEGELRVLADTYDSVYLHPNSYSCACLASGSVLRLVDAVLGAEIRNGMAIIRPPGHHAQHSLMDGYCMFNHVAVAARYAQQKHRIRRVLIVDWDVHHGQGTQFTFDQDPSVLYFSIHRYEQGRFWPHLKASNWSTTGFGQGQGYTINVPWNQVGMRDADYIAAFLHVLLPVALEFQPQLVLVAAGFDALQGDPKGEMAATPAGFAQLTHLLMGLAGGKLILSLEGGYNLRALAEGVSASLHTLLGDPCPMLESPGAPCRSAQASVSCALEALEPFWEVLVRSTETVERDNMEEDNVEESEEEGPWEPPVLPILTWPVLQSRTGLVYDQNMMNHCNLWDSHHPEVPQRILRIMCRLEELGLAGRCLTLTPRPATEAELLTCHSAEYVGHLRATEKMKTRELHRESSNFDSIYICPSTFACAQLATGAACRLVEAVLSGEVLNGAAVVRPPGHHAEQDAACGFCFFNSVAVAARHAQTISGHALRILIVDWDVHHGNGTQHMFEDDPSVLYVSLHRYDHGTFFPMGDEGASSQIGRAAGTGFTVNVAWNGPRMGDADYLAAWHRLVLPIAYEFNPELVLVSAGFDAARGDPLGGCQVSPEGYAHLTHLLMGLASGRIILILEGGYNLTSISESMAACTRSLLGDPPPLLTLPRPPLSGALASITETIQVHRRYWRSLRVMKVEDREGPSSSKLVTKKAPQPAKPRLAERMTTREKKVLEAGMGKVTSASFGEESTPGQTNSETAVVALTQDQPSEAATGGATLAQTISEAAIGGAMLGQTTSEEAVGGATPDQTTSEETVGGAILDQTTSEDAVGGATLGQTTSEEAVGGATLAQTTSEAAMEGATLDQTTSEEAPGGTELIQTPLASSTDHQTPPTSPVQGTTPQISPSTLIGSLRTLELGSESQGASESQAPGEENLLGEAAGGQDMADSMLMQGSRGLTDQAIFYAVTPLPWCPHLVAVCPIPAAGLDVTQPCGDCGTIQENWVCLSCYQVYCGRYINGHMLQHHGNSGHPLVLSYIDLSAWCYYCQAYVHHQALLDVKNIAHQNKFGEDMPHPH

[1] = tested on: Total HDAC (HeLa Nuclear Extracts); experiment: Total HDAC inhibition (HeLa nuclear extracts); assay type: biochemical
TNFα = TNFα inhibition (LPS-stimulated human PBMCs); assay type: cell-based; conditions: PBMC
HDAC3 = HDAC3 (Homo sapiens (Human), UniProt O15379); experiment: HDAC3 inhibition; assay type: biochemical
Chain of HDAC3 (O15379 whole entry, species assumed): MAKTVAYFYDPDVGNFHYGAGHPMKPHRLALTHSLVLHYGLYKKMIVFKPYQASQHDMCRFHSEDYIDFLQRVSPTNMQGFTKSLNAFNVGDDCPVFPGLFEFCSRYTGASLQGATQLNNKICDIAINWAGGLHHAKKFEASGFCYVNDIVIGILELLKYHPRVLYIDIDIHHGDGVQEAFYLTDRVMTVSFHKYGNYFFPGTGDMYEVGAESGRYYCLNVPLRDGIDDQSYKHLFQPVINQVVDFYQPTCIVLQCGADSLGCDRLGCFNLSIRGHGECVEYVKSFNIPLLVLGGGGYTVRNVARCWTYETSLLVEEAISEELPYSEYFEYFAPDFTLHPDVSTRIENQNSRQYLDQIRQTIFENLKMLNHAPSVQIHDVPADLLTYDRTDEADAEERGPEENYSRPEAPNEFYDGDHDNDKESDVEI
Chain of HDAC3 (Q9Y618 395-489 partner, species assumed): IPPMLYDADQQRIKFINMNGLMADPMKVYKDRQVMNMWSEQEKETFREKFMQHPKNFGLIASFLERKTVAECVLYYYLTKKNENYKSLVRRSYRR

HDAC4 = HDAC4 (Homo sapiens (Human), UniProt P56524); experiment: HDAC4 inhibition; assay type: biochemical
Chain of HDAC4 (P56524 whole entry, species assumed): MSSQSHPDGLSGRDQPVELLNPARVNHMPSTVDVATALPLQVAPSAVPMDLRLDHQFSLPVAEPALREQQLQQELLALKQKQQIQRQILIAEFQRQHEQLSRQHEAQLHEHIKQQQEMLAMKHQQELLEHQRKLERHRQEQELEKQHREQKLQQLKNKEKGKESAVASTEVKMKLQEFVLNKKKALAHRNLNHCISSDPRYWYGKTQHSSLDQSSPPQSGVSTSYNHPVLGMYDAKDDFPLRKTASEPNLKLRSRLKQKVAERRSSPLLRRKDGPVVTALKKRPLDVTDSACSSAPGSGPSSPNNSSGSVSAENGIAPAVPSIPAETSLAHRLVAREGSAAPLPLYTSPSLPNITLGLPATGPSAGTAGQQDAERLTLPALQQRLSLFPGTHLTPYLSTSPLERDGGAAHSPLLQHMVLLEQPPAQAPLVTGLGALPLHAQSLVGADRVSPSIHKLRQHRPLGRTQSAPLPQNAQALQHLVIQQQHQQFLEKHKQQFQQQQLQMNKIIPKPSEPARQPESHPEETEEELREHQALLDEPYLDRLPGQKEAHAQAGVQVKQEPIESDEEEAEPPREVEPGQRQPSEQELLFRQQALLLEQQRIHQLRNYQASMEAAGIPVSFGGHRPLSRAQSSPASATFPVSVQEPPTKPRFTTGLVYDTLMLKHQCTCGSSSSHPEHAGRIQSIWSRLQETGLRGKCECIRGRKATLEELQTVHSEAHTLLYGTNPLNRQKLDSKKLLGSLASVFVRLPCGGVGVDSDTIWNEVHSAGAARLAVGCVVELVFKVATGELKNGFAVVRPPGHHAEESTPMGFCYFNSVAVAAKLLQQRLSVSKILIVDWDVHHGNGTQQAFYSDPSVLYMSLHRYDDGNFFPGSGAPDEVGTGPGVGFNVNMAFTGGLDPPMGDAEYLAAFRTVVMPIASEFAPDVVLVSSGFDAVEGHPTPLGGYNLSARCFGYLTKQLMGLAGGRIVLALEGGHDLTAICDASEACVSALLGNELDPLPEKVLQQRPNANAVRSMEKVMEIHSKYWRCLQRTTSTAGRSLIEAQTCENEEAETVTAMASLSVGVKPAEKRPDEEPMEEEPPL

HDAC2 = HDAC2 (Homo sapiens (Human), UniProt Q92769); experiment: HDAC2 inhibition; assay type: biochemical
Chain of HDAC2 (Q92769 whole entry, species assumed): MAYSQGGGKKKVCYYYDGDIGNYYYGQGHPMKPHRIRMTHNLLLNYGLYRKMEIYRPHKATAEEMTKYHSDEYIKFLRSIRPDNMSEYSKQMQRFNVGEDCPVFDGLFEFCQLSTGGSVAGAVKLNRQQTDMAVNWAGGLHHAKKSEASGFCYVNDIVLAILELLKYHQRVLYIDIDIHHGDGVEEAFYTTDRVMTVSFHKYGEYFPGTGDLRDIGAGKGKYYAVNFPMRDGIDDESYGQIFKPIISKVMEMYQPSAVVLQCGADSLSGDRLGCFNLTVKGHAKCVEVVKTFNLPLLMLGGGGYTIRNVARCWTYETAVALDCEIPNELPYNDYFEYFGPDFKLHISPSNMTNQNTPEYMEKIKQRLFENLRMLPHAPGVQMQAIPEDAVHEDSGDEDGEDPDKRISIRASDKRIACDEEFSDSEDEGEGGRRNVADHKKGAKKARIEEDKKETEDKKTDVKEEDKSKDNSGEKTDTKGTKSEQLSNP

HDAC9 = HDAC9 (Homo sapiens (Human), UniProt Q9UKV0); experiment: HDAC9 inhibition; assay type: biochemical
Chain of HDAC9 (Q9UKV0 whole entry, species assumed): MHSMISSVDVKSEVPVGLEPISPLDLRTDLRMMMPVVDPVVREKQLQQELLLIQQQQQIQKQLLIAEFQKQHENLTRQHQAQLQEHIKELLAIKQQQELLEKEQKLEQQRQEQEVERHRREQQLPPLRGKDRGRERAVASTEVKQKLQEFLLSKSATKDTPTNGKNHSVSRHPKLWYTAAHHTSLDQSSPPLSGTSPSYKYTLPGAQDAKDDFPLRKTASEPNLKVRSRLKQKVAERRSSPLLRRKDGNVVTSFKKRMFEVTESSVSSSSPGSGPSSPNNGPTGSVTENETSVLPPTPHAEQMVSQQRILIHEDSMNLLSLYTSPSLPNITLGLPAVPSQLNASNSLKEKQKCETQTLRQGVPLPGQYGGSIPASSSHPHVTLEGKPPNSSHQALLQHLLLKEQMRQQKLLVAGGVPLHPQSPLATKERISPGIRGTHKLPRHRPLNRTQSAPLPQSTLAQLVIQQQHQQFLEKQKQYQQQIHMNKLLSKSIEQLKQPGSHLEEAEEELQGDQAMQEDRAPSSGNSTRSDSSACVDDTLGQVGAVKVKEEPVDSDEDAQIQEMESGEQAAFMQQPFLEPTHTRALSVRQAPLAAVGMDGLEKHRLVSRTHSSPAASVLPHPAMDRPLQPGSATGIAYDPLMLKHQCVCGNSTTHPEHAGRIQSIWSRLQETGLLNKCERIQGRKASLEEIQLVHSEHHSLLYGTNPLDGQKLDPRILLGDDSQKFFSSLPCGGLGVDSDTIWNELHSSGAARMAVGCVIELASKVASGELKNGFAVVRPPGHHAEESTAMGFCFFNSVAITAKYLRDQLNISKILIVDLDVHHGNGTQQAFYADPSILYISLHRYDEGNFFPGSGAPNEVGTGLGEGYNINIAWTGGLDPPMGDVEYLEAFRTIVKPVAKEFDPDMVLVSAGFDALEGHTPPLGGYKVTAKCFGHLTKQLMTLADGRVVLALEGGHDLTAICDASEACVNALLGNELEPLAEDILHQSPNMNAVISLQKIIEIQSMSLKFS

HDAC11 = HDAC11 (Homo sapiens (Human), UniProt Q96DB2); experiment: HDAC11 inhibition; assay type: biochemical
HDAC10 = HDAC10 (Homo sapiens (Human), UniProt Q969S8); experiment: HDAC10 inhibition; assay type: biochemical
HDAC8 = HDAC8 (Homo sapiens (Human), UniProt Q9BY41); experiment: HDAC8 inhibition; assay type: biochemical
HDAC5 = HDAC5 (Homo sapiens (Human), UniProt Q9UQL6); experiment: HDAC5 inhibition; assay type: biochemical

Chain of HDAC1 (Q13547 whole entry, species assumed): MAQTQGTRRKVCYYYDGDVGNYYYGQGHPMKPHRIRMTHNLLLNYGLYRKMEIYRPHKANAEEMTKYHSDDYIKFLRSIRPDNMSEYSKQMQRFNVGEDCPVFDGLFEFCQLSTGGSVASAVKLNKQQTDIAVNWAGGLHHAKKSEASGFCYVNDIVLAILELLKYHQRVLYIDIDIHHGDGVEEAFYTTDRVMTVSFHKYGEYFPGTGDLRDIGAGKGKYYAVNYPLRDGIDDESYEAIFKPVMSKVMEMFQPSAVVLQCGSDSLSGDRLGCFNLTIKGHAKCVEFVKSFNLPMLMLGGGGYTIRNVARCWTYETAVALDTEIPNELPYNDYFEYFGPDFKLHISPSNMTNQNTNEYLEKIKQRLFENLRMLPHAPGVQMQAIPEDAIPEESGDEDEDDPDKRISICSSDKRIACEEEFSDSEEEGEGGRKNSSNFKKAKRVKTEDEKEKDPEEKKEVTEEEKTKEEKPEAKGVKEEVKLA

Structure (SMILES) | IC50 (HDAC1) | IC50 (MCF7 Breast Tumour Cell) | IC50 (HDAC6) | IC50 [1] | other results
O=C(CCCCC=C(c1ccccn1)c1ccccn1)NO [Example 1, N-Hydroxy-7,7-di(pyridin-2-yl)hept-6-enamide] | 158 nM | 600 nM | 68 nM | 950 nM | –
O=C(CCCCCN(c1ccccn1)c1ccccn1)NO [Example 2, 6-(Dipyridin-2-ylamino)-N-hydroxyhexanamide] | – | 2340 nM | – | 2490 nM | –
O=C(CCCCCCN(c1ccccn1)c1ccccn1)NO [Example 3, 7-(Dipyridin-2-ylamino)-N-hydroxyheptanamide] | – | – | 9 nM | 245 nM | IC50 (TNFα): 100 nM; IC50 (HDAC3): 710 nM; IC50 (HDAC4): 307 nM; IC50 (HDAC2): 1540 nM
O=C(CCCCCCN(c1ccccn1)c1ccc2ccccc2n1)NO [Example 4, N-Hydroxy-7-(pyridin-2-yl(quinolin-2-yl)amino)heptanamide] | 71 nM | – | 16 nM | 81 nM | IC50 (HDAC9): 90 nM; IC50 (HDAC11): 112 nM; IC50 (HDAC10): 126 nM; IC50 (HDAC3): 62 nM; IC50 (HDAC4): 545 nM; IC50 (HDAC8): 312 nM; IC50 (HDAC2): 212 nM; IC50 (HDAC5): 123 nM
O=C(CCCCCC=C(c1ccccn1)c1ccccn1)NO [Example 5, N-Hydroxy-8,8-di(pyridin-2-yl)oct-7-enamide] | 642 nM | – | 22 nM | 415 nM | –
O=C(CCCCCCC(c1ccccn1)c1ccccn1)NO [Example 6] | – | 445 nM | – | – | –
Cc1ccnc(N(CCCCCCC(=O)NO)c2ccccn2)c1 [Example 7, N-Hydroxy-7-((4-methylpyridin-2-yl)(pyridin-2-yl)amino)heptanamide] | – | 448 nM | – | 778 nM | –
Cc1ccc(N(CCCCCCC(=O)NO)c2ccccn2)nc1 [Example 9, N-Hydroxy-7-((5-methylpyridin-2-yl)(pyridin-2-yl)amino)heptanamide] | 453 nM | 697 nM | 31 nM | 337 nM | IC50 (HDAC9): 759 nM; IC50 (HDAC2): 1140 nM
COc1ccc(N(CCCCCCC(=O)NO)c2ccccn2)nc1 [Example 11, N-Hydroxy-7-((5-methoxypyridin-2-yl)(pyridin-2-yl)amino)heptanamide] | 182 nM | 292 nM | 13 nM | 406 nM | IC50 (HDAC9): 759 nM; IC50 (HDAC2): 883 nM
O=C(CCCCCCN(c1ccccn1)c1ccc(-c2ccc(F)cc2)cn1)NO [Example 13, 7-((5-(4-Fluorophenyl)pyridin-2-yl)(pyridin-2-yl)amino)-N-hydroxyheptanamide] | – | 357 nM | – | 521 nM | –
CC(C)Oc1ccnc(N(CCCCCCC(=O)NO)c2ccccn2)c1 [Example 19, 7-[(4-Isopropoxy-pyridin-2-yl)-pyridin-2-yl-amino]heptanoic acid hydroxyamide] | – | 478 nM | – | 326 nM | –
O=C(CCCCCCN(c1cccnc1)c1ccccn1)NO [Example 20, 7-(Pyridin-3-yl-pyridin-2-yl-amino)-heptanoic acid hydroxyamide] | – | – | – | 539 nM | –
O=C(CCCCCCN(c1ccccn1)c1cc(-c2ccc(F)cc2)ccn1)NO [Example 21, 7-{[4-(4-Fluoro-phenyl)-pyridin-2-yl]-pyridin-2-yl-amino}-heptanoic acid hydroxyamide] | – | – | – | 1080 nM | –
Nc1ccc(-c2ccnc(N(CCCCCCC(=O)NO)c3ccccn3)c2)cc1 [Example 22, 7-{[4-(4-Amino-phenyl)-pyridin-2-yl]-pyridin-2-yl-amino}-heptanoic acid hydroxyamide] | – | 39 nM | – | 298 nM | –
Cc1ccc(-c2ccnc(N(CCCCCCC(=O)NO)c3ccccn3)c2)cc1 [Example 23, 7-[Pyridin-2-yl-(4-p-tolyl-pyridin-2-yl)-amino]-heptanoic acid hydroxyamide] | – | 77 nM | – | 1060 nM | –

The next lines start with results.

IC50 (HDAC1) | IC50 (MCF7 Breast Tumour Cell) | IC50 (HDAC6) | IC50 [1] | Structure (SMILES) | other results
116 nM | 1050 nM | 19 nM | 493 nM | O=C(CCCCCCN(c1ccccn1)c1cc(-c2ccccc2)ccn1)NO [Example 8, N-Hydroxy-7-((4-phenylpyridin-2-yl)(pyridin-2-yl)amino)heptanamide] | –
182 nM | 285 nM | 57 nM | 1070 nM | O=C(CCCCCCN(c1ccccn1)c1ccc(OCc2ccccc2)cn1)NO [Example 10, 7-((5-(Benzyloxy)pyridin-2-yl)(pyridin-2-yl)amino)-N-hydroxyheptanamide] | –
– | 81 nM | – | 310 nM | O=C(CCCCCCN(c1ccccn1)c1ccc(-c2ccccc2)cn1)NO [Example 12, N-Hydroxy-7-((5-phenylpyridin-2-yl)(pyridin-2-yl)amino)heptanamide] | –
64 nM | 169 nM | 2 nM | 337 nM | O=C(CCCCCCN(c1ccccn1)c1cc2ccccc2cn1)NO [Example 14, 7-(Isoquinolin-3-yl-pyridin-2-yl-amino)-heptanoic acid hydroxyamide] | IC50 (HDAC9): 145 nM; IC50 (HDAC2): 306 nM
151 nM | 411 nM | 3 nM | 1260 nM | O=C(CCCCCCN(c1ccccn1)c1cc(OCc2ccccc2)ccn1)NO [Example 15, 7-[(4-Benzyloxy-pyridin-2-yl)-pyridin-2-yl-amino]-heptanoic acid hydroxyamide] | IC50 (HDAC9): 423 nM; IC50 (HDAC2): 612 nM
– | 1090 nM | – | 1080 nM | COc1ccnc(N(CCCCCCC(=O)NO)c2ccccn2)c1 [Example 16, 7-[(4-Methoxy-pyridin-2-yl)-pyridin-2-yl-amino]-heptanoic acid hydroxyamide] | –
– | 456 nM | – | 598 nM | CCOc1ccnc(N(CCCCCCC(=O)NO)c2ccccn2)c1 [Example 17, 7-[(4-Ethoxy-pyridin-2-yl)-pyridin-2-yl-amino]-heptanoic acid hydroxyamide] | –
– | 574 nM | – | 822 nM | CCCOc1ccnc(N(CCCCCCC(=O)NO)c2ccccn2)c1 [Example 18, 7-[(4-Propoxy-pyridin-2-yl)-pyridin-2-yl-amino]-heptanoic acid hydroxyamide] | –
– | 200 nM | – | 1620 nM | Cc1ccccc1-c1ccnc(N(CCCCCCC(=O)NO)c2ccccn2)c1 [Example 24, 7-[Pyridin-2-yl-(4-o-tolyl-pyridin-2-yl)-amino]-heptanoic acid hydroxyamide] | –
– | 210 nM | – | 1080 nM | O=C(CCCCCCN(c1ccccn1)c1cc(-c2ccccc2Cl)ccn1)NO [Example 25, 7-{[4-(2-Chloro-phenyl)-pyridin-2-yl]-pyridin-2-yl-amino}-heptanoic acid hydroxyamide] | –
– | 200 nM | – | – | O=C(CCCCCCN(c1ccccn1)c1cc(-c2ccccc2F)ccn1)NO [Example 26, 7-{[4-(2-Fluoro-phenyl)-pyridin-2-yl]-pyridin-2-yl-amino}-heptanoic acid hydroxyamide] | –
– | 81 nM | – | 1680 nM | Cc1cccc(-c2ccnc(N(CCCCCCC(=O)NO)c3ccccn3)c2)c1 [Example 27, 7-[Pyridin-2-yl-(4-m-tolyl-pyridin-2-yl)-amino]-heptanoic acid hydroxyamide] | –
